For the assay, the target named is T1, EhMeth (Entamoeba histolytica, UniProt Q6Q386).
T1 construct: gene meth; GST fusion from pGEX6-P3 in E. coli BL21(DE3), GST cleaved off with PreScission protease; one molecule per asymmetric unit
T1 sequence (Q6Q386 1-322): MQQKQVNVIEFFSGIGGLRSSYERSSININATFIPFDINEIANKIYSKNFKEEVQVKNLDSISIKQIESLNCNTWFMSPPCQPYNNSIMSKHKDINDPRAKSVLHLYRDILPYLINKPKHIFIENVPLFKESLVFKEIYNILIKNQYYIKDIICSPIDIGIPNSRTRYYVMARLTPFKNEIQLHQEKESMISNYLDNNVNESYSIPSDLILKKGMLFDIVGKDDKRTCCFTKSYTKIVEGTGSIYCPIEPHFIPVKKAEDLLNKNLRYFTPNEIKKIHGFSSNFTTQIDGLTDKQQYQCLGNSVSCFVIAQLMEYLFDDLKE
Description: X-ray crystal structure, […] Å. To be noted: co-crystallised with 150x molar excess AdoHcy, pH 6.5, 20 °C; cofactor-binding pocket.

Molecules are shown by their SMILES.

Take `Nc1ncnc2c1ncn2[C@@H]1O[C@H](CSCC[C@H](N)C(=O)O)[C@@H](O)[C@H]1O` [AdoHcy]: the “X-ray crystal structure, 2.15 Å” value was “the crystal structure of the binary complex comprising EhMeth and AdoHcy is presented”.
